What was measured:
[1] = molecular target: T1, GPIIb-IIIa (Homo sapiens, UniProt P05106+P08514); experiment: Competition assay: synthetic polypeptide inhibition of biotinylated Fn binding to purified GPIIb-IIIa; conditions: for inhibition of Fn binding to GPIIb-IIIa: tested at 200 μM polypeptide
T1 construct: platelet membrane GPIIb-IIIa protein from lysed platelets; from tissue
Description: The competition assays are performed as described by Charo et al., J. Biol. Chem., 266:1415-1421 (1991). The competition assay is performed by first admixing into individual wells of a 96 well microtiter plate (Immunlon, Dynatech) 10 μg/ml of purified GPIIb-IIIa, prepared in Example 1, diluted in HEPES-saline buffer, pH 7.4, consisting of 10 mM HEPES, 150 mM NaCl 1 mM CaCl2 and 1 mMMgCl2. The plates are maintained for 16 hours at 4° C. to allow the purified receptor to adsorb onto the walls of the wells. The receptor-coated wells are then washed two times with Modified Tyrode's buffer, prepared as described in Example 1, to remove any non-bound receptor from the receptor-coated wells. Non-receptor-occupied sites on the microtiter wells are blocked by admixing 5% BSA dissolved in Modified Tyrode's buffer into each well and maintaining the plate for 2 hours at room temperature.
After removing the blocking solution and washing the blocked wells as described above, 50 μl of a 10 nM solution of biotinylated Fn in Modified Tyrode's buffer is admixed into each well in the presence of polypeptides prepared in Example 9a ranging in concentration from 0.1 μM to 200 μM polypeptide to form a solid-liquid phase receptor-protein admixture. Fn admixed in the absence of polypeptides served as a positive control for the competition assay. Purified Fn is prepared as described in Example 2.
The resultant purified Fn is then biotinylated as described by Dale et al., Blood, 77:1096-1099 (1991). Briefly, for biotinylation, Fn is first dialyzed into 0.1M NaHCO3 containing 0.1M NaCl at pH 8.0 and centrifuged at 100,000× g for 30 minutes at 4° C. to remove any particulate matter. The protein concentration is adjusted to 0.5 mg/ml in 50 mM sodium borate at pH 8.5. […]
The Fn-peptide admixtures are maintained in GPIIb-IIIa-coated wells for 2 hours at room temperature to allow the biotinylated Fn to bind to the receptor. Following this maintenance period, the reacted wells are washed as described above and the amount of biotinylated Fn bound to GPIIb-IIIa is determined by admixing 0.1 ml avidin bound to biotinylated horseradish peroxidase H (Hrp) (Sigma, St. Louis, Mo.) at a 1:2000 dilution to form an avidin-biotinylated Fn admixture. […] Excess avidin Hrp is removed by washing as described and the presence of biotinylated Fn bound to purified GPIIb-IIIa is detected by admixture of 50 μl of freshly prepared chromogenic substrate solution containing 4.0 mg/ml 0-phenylenediamine and 0.012% (v/v) hydrogen peroxide in CP buffer as described in Example 3a. After maintaining the color developing-reaction admixture for 10 minutes at 20° C., the reaction is stopped with the admixture of 2N H2 SO4 and the stopped reactions are measured for absorbance as described in Example 3a.

[2] = molecular target: T1, GPIIb-IIIa; experiment: Direct binding of 125I-labelled ligands to microtiter wells coated with purified GPIIb-IIIa
Description: To determine if the insert coded polypeptide containing fibronectin residues 1235-1436 bound GPIIb-IIIa, the capacity of microtiter wells coated with purified GPIIb-IIIa to bind the radiolabelled fusion-protein preparation was ascertained (Table 3). In addition, the radiolabelled material bound to the insolubilized GPIIb-IIIa was recovered and analyzed by SDS-PAGE followed by radioautography. […] The isolated protein products were a mixture of insert coded polypeptides containing fusion protein and maltose binding protein breakdown products. Only those bands containing the insert-coded polypeptide bound to the insolubilized GPIIb-IIIa and that binding was inhibitable by either EDTA or the monoclonal antibody FnI-16.

[3] = molecular target: T1, GPIIb-IIIa; experiment: Inhibition of 125I-Fn binding to immobilized GPIIb-IIIa by fusion proteins (competition binding); conditions: varying concentrations, FIG. 3
Description: The ability of a fusion protein or polypeptide of the present invention to inhibit the binding interaction between GPIIb-IIIa and either fibronectin or fibrinogen was measured by competition binding to immobilized GPIIb-IIIa.
Incubate the GPIIb-IIIa in the plate for 16 hours at 4° C., then the unbound material is removed from the wells which are then blocked with 150 μl of 5% BSA in the same buffer for 1 hour at room temperature. Wash the wells three times with 150 μl of Tyrode's buffer with 5 mM HEPES, 1 mM MgCl2, 1 mg/ml dextrose, 1 mg/ml BSA. […] Incubate 4 hours to overnight at room temperature (with lead shield).
Carefully remove radioactive samples and wash 3 times with 150 μl Tyrodes with 5 mM HEPES, 1 mMMgCl2, 1 mg/ml dextrose, 1 mg/ml BSA. Count with a Gamma Counter and elute by boiling in SDS-PAGE loading Buffer.
In an alternative embodiment, non-radioactive Fn may be used instead of radioactive, and detected by reacting with an appropriate anti-Fn antibody and HRP-conjugated secondary antibody. Using this variation, each antibody is incubated with the washed plate for 1 hr. The anti-Fn antibody is titrated, but a 1:1000 dilution of HRP-conjugated antibody from most manufacturers works fine.

Substance: (2:73-274): polypeptide of SEQ ID NO 2 residues 73-274, Fn residues 1235-1436
- inhibition of Fn binding to GPIIb-IIIa [1]: inhibit Fn binding to GPIIb-IIIa

Substance: (2:197-274): polypeptide of SEQ ID NO 2 residues 197-274, Fn residues 1359-1436
- inhibition of Fn binding to GPIIb-IIIa [1]: inhibit Fn binding to GPIIb-IIIa

Substance: (2:248-274): synthetic polypeptide of SEQ ID NO 2 residues 248-274, Fn residues 1410-1436 (IGQQSTVSDVPRDLEVVAATPTSLLIS)
- polypeptide concentration for maximal inhibition of Fn binding to GPIIb-IIIa ([1]; 10 nM biotinylated Fn): approximately 200 μM
- competitive inhibition of Fn binding to purified GPIIb-IIIa ([1]; 10 nM biotinylated Fn, 0.1 to 200 μM polypeptide): competitively inhibits

Substance: Fibronectin
- binding of radiolabelled ligand to insolubilized GPIIb-IIIa ([2]; GPIIb-IIIa coated wells): Specific binding
- 125I-labelled ligand bound to GPIIb-IIIa ([2]; inhibitor 2 mM EDTA): 8 Counts × 10^-3
- 125I-labelled ligand bound to GPIIb-IIIa ([2]; inhibitor Mab 16.12): 12 Counts × 10^-3
- 125I-labelled ligand bound to GPIIb-IIIa ([2]; no inhibitor): 42 Counts × 10^-3
- inhibition of fibronectin binding to purified GPIIb-IIIa [3]: inhibited fibronectin binding

— patent US5492890A, “Polypeptides for promoting cell attachment” (The Scripps Research Institute, priority 1991, dated 1996)
